In US8809341B2, “2,4-pyrimidinediamine compounds and uses as anti-proliferative agents” (Rigel Pharmaceuticals, Inc., priority 2003, dated 2014):
pIC50: −log10 of the molar value. Like-named read-outs stand apart in the source and are kept apart here.

Experiments:
Type in all cases: cell-based
SKMEL5 = experiment: in vitro antiproliferation assay, SKMEL5
Experimental: (§1) The IC50 values of various compounds against a various different tumor cell lines were determined using standard in vitro antiproliferation assays. The tumor cell lines tested were as follows: A549 (lung); H1299 (lung), ACHN (kidney/p53 wt), CAKI (renal cell carcinoma), NCI-H460 (lung); HCT116 (colon/p53w0; HELA (cervix/p53 wt), HUH7 (liver/p53 wt), HUVEC (primary endothelial), LNCAP (prostate), HT-29 (colon); MCF-7 (breast); MCF-7 (breast/ER positive), MDA MB435S (breast); MDA MB231 (breast/ER negative), DU145 (prostate); BxPC-3 (pancreatic); SKOV-3 (ovarian); HepG2 (hepatic), NDHF primary normal human dermal fibroblast), SKMEL28 (breast/p53mut), SKMEL5 (breast/p53 wt), U20S (bone) and PC3 (prostate). […] A blank indicates the specified compound was not tested against the specified cell line.
(§2) Many of the compounds were tested against other cell lines. Their activity is reported in TABLE 15, below, where +”, “−”, “−/+” or “+/−” values are as described for TABLES 1-14. Where the cell line includes a value in a parenthetical, the value indicates the seeding density at which the assay was performed

SKMEL28 = experiment: in vitro antiproliferation assay, SKMEL28 (breast/p53mut)
Experimental: as §1, §2

HCT116 = experiment: in vitro antiproliferation assay, HCT116 (colon)
Experimental: as §1, §2

H1299 cells = experiment: in vitro antiproliferation assay, H1299 (lung)
Summary of the method: (§3)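 IC50 values came from standard antiproliferation testing in cultured tumour cells; the A549 and H1299 lines are of lung origin.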

ACHN = experiment: in vitro antiproliferation assay, ACHN (kidney/p53 wt)
Experimental: as §1, §2

A549 cells = experiment: in vitro antiproliferation assay, A549 (lung)
Summary of the method: as §3

CAKI = experiment: in vitro antiproliferation assay, CAKI (renal cell carcinoma)
Experimental: as §1, §2

PC3 = experiment: in vitro antiproliferation assay, PC3 (prostate)
Experimental: as §1, §2

HUVEC = experiment: in vitro antiproliferation assay, HUVEC (primary endothelial)
Experimental: as §1, §2

[1] = HCT116 (colon), read-out: HCT116
[2] = IC50 class against H1299 (lung) tumor cells
[3] = IC50 class against A549 (lung) tumor cells
[4] = Table 7, in vitro antiproliferation, A549 (lung) cells
[5] = A549 (lung) cells, in vitro antiproliferation
[6] = H1299 (lung) cells, in vitro antiproliferation
[7] = A549 (lung) cells, antiproliferation
[8] = H1299 (lung) cells, antiproliferation

Structure (SMILES)	pIC50 (PC3)	pIC50 (A549 cells; [5])	pIC50 (A549 cells; [7])	other results
Fc1cnc(Nc2ccc(N3CCOCC3)cc2)nc1NC1CC1 [compound 101]	–	–	–	pIC50 (SKMEL5): ≥ 4.70; pIC50 (SKMEL28): ≥ 4.70; pIC50 (HCT116; [1]): ≥ 4.70; pIC50 (H1299 cells; [2]): ≥ 4.70; pIC50 (ACHN): ≥ 4.70; pIC50 (A549 cells; [3]): ≥ 4.70; pIC50 (CAKI): ≥ 4.70
O=C(COc1cccc(Nc2ncc(F)c(NC3CC3)n2)c1)NC1CC1 [compound 102]	–	–	–	pIC50 (SKMEL5): ≥ 4.70; pIC50 (SKMEL28): ≥ 4.70; pIC50 (HCT116; [1]): ≥ 4.70; pIC50 (H1299 cells; [2]): ≥ 4.70; pIC50 (ACHN): ≥ 4.70; pIC50 (A549 cells; [3]): ≥ 4.70; pIC50 (CAKI): ≥ 4.70
O=C(COc1cccc(Nc2ncc(F)c(NC3CC3)n2)c1)NC1CCC1 [compound 103]	–	–	–	pIC50 (SKMEL5): ≥ 4.70; pIC50 (SKMEL28): ≥ 4.70; pIC50 (HCT116; [1]): ≥ 4.70; pIC50 (H1299 cells; [2]): ≥ 4.70; pIC50 (ACHN): ≥ 4.70; pIC50 (A549 cells; [3]): ≥ 4.70; pIC50 (CAKI): ≥ 4.70
CNC(=O)COc1cccc(Nc2ncc(F)c(NC3CC3)n2)c1 [compound 106]	–	–	–	pIC50 (SKMEL5): ≥ 4.70; pIC50 (SKMEL28): ≥ 4.70; pIC50 (HCT116; [1]): ≥ 4.70; pIC50 (H1299 cells; [2]): ≥ 4.70; pIC50 (ACHN): ≥ 4.70; pIC50 (A549 cells; [3]): ≥ 4.70; pIC50 (CAKI): ≥ 4.70
CNC(=O)COc1cccc(Nc2ncc(F)c(Nc3ccc4c(c3)OC(F)(F)C(F)(F)O4)n2)c1 [compound 503]	< 4.70	–	–	pIC50 (HCT116; [1]): ≥ 4.70; pIC50 (A549 cells; Table 5, in vitro antiproliferation, A549 (lung) cells): > 4.70
O=C(c1cc2cc(Nc3ncc(F)c(Nc4ccc5c(c4)OCCO5)n3)ccc2o1)N1CCCNCC1 [compound 644]	< 4.70	–	–	pIC50 (HCT116; [1]): ≥ 4.70; pIC50 (HCT116; Table 7, in vitro antiproliferation, colon cells, read-out: HTC116): ≥ 4.70; pIC50 (A549 cells; [4]): ≥ 4.70
CNC(=O)c1cc2cccc(Nc3ncc(F)c(Nc4cc(OC)cc(OC)c4)n3)c2[nH]1 [compound 654]	–	–	–	pIC50 (SKMEL5): ≥ 4.70; pIC50 (SKMEL28): ≥ 4.70; pIC50 (H1299 cells; Table 7, in vitro antiproliferation, H1299 (lung) cells): ≥ 4.70; pIC50 (ACHN): ≥ 4.70; pIC50 (A549 cells; [4]): ≥ 4.70; pIC50 (CAKI): ≥ 4.70
CNC(=O)COc1ccc(Nc2ncc(F)c(Nc3ccc(C(C)(C)C)cc3)n2)cc1 [compound 747]	≥ 4.70	< 4.70	–	–
CNC(=O)COc1cccc(Nc2ncc(F)c(Nc3ccc(C(C)(C)C)cc3)n2)c1 [compound 748]	< 4.70	< 4.70	–	–
CC(C)(C)c1ccc(Nc2nc(Nc3cccc(OCC(=O)O)c3)ncc2F)cc1 [compound 749]	< 4.70	< 4.70	–	–
CC(C)(C)c1ccc(Nc2nc(Nc3cccc(OCCO)c3)ncc2F)cc1 [compound 750]	≥ 4.70	< 4.70	–	–
CNC(=O)COc1cccc(Nc2ncc(F)c(Nc3ccc(OC(C)C)cc3)n2)c1 [compound 751]	< 4.70	> 4.70	–	–
CC(C)Oc1ccc(Nc2nc(Nc3cccc(OCC(=O)O)c3)ncc2F)cc1 [compound 752]	< 4.70	< 4.70	–	–
CNC(=O)COc1cccc(Nc2ncc(F)c(Nc3ccc(OC)c(OC)c3)n2)c1 [compound 753]	< 4.70	< 4.70	–	–
COc1ccc(Nc2nc(Nc3cccc(OCC(=O)NCC(O)CO)c3)ncc2F)cc1OC (stereo not drawn) [compound 754]	< 4.70	< 4.70	–	–
O=C(COc1cccc(Nc2ncc(F)c(Nc3cccc(O)c3)n2)c1)N1CCOCC1 [compound 762]	≥ 4.70	< 4.70	–	–
CCOC(=O)COc1cccc(Nc2nc(Nc3cccc(O)c3)ncc2F)c1 [compound 763]	< 4.70	< 4.70	–	pIC50 (H1299 cells; [6]): ≥ 4.70
CC(C)c1ccc(Nc2ncc(F)c(Nc3cccc(O)c3)n2)cc1 [compound 764]	< 4.70	< 4.70	–	–
COc1cc(Nc2ncc(F)c(Nc3cccc(O)c3)n2)cc(OC)c1 [compound 765]	≥ 4.70	≥ 4.70	–	–
CCOC(=O)COc1cccc(Nc2ncc(F)c(Nc3cc(OC)cc(OC)c3)n2)c1 [compound 766]	< 4.70	< 4.70	–	pIC50 (H1299 cells; [6]): ≥ 4.70
CNC(=O)COc1cccc(Nc2ncc(F)c(Nc3cc(OC)cc(OC)c3)n2)c1 [compound 767]	< 4.70	< 4.70	–	–
CNC(=O)COc1cccc(Nc2ncc(F)c(Nc3ccc(C)c(OC)c3)n2)c1 [compound 790]	≥ 4.70	≥ 4.70	–	–
Cc1cc(C)cc(Nc2ncc(F)c(Nc3ccc(Cl)c(Cl)c3)n2)c1 [compound 838]	–	≥ 4.70	–	pIC50 (HUVEC): < 4.70; pIC50 (H1299 cells; [6]): < 4.70
COc1ccc(N(C)c2nc(Nc3ccc(-c4ncco4)cc3)ncc2F)cc1OC [compound 869]	–	≥ 4.70	–	pIC50 (SKMEL5): ≥ 4.70; pIC50 (SKMEL28): ≥ 4.70; pIC50 (H1299 cells; [6]): ≥ 4.70; pIC50 (ACHN): ≥ 4.70
Fc1ccc(Nc2ncc(F)c(Nc3ccc(F)c(Cl)c3)n2)cc1Cl [compound 938]	< 4.70	–	< 4.70	–

Structure (SMILES)	pIC50 (PC3)	pIC50 (A549 cells; [5])	pIC50 (A549 cells; [7])	other results
COc1cc(Nc2nc(Nc3cccc(OCCO)c3)ncc2F)cc(OC)c1 [compound 940]	≥ 4.70	–	≥ 4.70	pIC50 (HCT116; [1]): ≥ 4.70; pIC50 (H1299 cells; [8]): ≥ 4.70
CCOC(=O)COc1cccc(Nc2ncc(F)c(Nc3cc(C)c(O)c(C)c3)n2)c1 [compound 947]	≥ 4.70	–	< 4.70	pIC50 (H1299 cells; [8]): ≥ 4.70
Cc1cc(Nc2nc(Nc3cccc(OCC(=O)N4CCOCC4)c3)ncc2F)cc(C)c1O [compound 948]	≥ 4.70	–	< 4.70	–
Cc1cc(Nc2nc(Nc3cccc(OCCN4CCOCC4)c3)ncc2F)cc(C)c1O [compound 949]	≥ 4.70	–	≥ 4.70	pIC50 (SKMEL28): ≥ 4.70; pIC50 (HCT116; [1]): ≥ 4.70; pIC50 (H1299 cells; [8]): ≥ 4.70
Cc1cc(Nc2nc(Nc3cccc(OCC(=O)N4CCOCC4)c3)ncc2F)cc(Cl)c1O [compound 954]	< 4.70	–	< 4.70	–
CCOC(=O)COc1cccc(Nc2nc(Nc3cccc(C(C)(C)C)c3)ncc2F)c1 [compound 955]	< 4.70	–	< 4.70	pIC50 (H1299 cells; [8]): < 4.70
CNC(=O)COc1cccc(Nc2nc(Nc3cccc(C(C)(C)C)c3)ncc2F)c1 [compound 956]	< 4.70	–	< 4.70	–
Cc1cc(Nc2nc(Nc3cccc(OCCN4CCOCC4)c3)ncc2F)cc(Cl)c1O [compound 957]	≥ 4.70	–	≥ 4.70	–
CCOC(=O)COc1cccc(Nc2ncc(F)c(Nc3cccc(C(C)(C)C)c3)n2)c1 [compound 958]	< 4.70	–	< 4.70	pIC50 (H1299 cells; [8]): < 4.70
Cc1cc(Nc2ncc(F)c(Nc3cccc(C(C)(C)C)c3)n2)cc(Cl)c1O [compound 959]	< 4.70	–	< 4.70	–
CNC(=O)COc1cccc(Nc2ncc(F)c(Nc3cccc(C(C)(C)C)c3)n2)c1 [compound 960]	< 4.70	–	< 4.70	–
CC(C)(C)c1cccc(Nc2nc(Nc3cccc(OCC(=O)NCC(O)CO)c3)ncc2F)c1 (stereo not drawn) [compound 961]	< 4.70	–	> 4.70	–
CC(C)(C)c1cccc(Nc2nc(Nc3cccc(OCC(=O)O)c3)ncc2F)c1 [compound 962]	< 4.70	–	< 4.70	pIC50 (H1299 cells; [8]): < 4.70
O=C(O)COc1cccc(Nc2ncc(F)c(Nc3cccc(O)c3)n2)c1 [compound 978]	< 4.70	–	< 4.70	–
Cc1cc(Nc2nc(Nc3cccc(OCC(=O)O)c3)ncc2F)cc(C)c1O [compound 979]	< 4.70	–	< 4.70	pIC50 (H1299 cells; [8]): ≥ 4.70
Cc1cc(Nc2nc(Nc3cccc(OCC(=O)N4CCNCC4)c3)ncc2F)cc(C)c1O [compound 980]	< 4.70	–	≥ 4.70	–
COC(=O)COc1cccc(Nc2ncc(F)c(Nc3cc(C)c(O)c(C)c3)n2)c1 [compound 982]	< 4.70	–	< 4.70	–
Cc1cc(Nc2nc(Nc3cccc(OCC(=O)N4CCNCC4)c3)ncc2F)cc(Cl)c1O [compound 983]	< 4.70	–	≥ 4.70	–
Cc1cc(Nc2nc(Nc3cccc(OCCN4CCNCC4)c3)ncc2F)cc(Cl)c1O [compound 984]	≥ 4.70	–	≥ 4.70	pIC50 (HCT116; [1]): ≥ 4.70
COC(=O)COc1cccc(Nc2ncc(F)c(Nc3cc(C)c(OC)c(C)c3)n2)c1 [compound 985]	< 4.70	–	< 4.70	–
COc1c(C)cc(Nc2nc(Nc3cccc(OCC(=O)N4CCNCC4)c3)ncc2F)cc1C [compound 986]	< 4.70	–	< 4.70	–
COc1c(C)cc(Nc2nc(Nc3cccc(OCCN4CCNCC4)c3)ncc2F)cc1C [compound 987]	≥ 4.70	–	< 4.70	–
CNC(=O)COc1cccc(Nc2ncc(F)c(Nc3ccc(Cl)c(Cl)c3)n2)c1 [compound 1006]	–	–	≥ 4.70	pIC50 (HUVEC): ≥ 4.70; pIC50 (H1299 cells; [8]): ≥ 4.70
Cc1cc(C)cc(Nc2ncc(F)c(N(C)c3ccc(Cl)c(Cl)c3)n2)c1 [compound 1007]	–	–	< 4.70	pIC50 (HUVEC): < 4.70; pIC50 (H1299 cells; [8]): < 4.70
COc1cc(Nc2ncc(F)c(N(C)c3ccc(Cl)c(Cl)c3)n2)cc(OC)c1 [compound 1009]	–	–	< 4.70	pIC50 (HUVEC): ≥ 4.70; pIC50 (H1299 cells; [8]): < 4.70
